In patent publication US20030054411A1, “GPR motifs and uses thereof” (priority 2001, published 2003):

Key:
[1] = test system: pheromone response pathway; assay: β-galactosidase reporter assays in yeast strains expressing different Gα subunits; type: cell-based, Saccharomyces cerevisiae; details: Gpa1, Gsα, Giα2, Giα3, Gα16 backgrounds
Description: (A) Bioactivity of cDNA #37 and 53 in yeast strains expressing different Gα subunits. The Gpa1, Giα2Gpa1(1-41), Giα3Gpa1(1-41) and Gα16Gpa1(1-41) yeast strains expressed similar amounts of G-protein as determined by immunoblotting with Gpa1-specific antisera. Each series of experiments include data obtained in the absence of Gα to indicate the signal obtained when the action of Gβγ is not limited by reformation of heterotrimer. Data are presented as the mean±S.E.M of three experiments with duplicate determinations. (B) Interaction of AGS2 and AGS3 with G-proteins. AGS2 and the bioactive AGS3 peptide (74 amino acids) beginning at the first in frame methionine were generated as GST-fusion proteins in bacteria and purified using a glutathione affinity matrix. AGS2 and AGS3 GST fusion proteins were incubated with G-protein subunits (Gα=60-80 nM, Gβγ=40 nM, fusion protein=˜300 nM, total volume=250 ul) for 12 hrs at 4° C. GDP=10 uM. […] Giα2 was generated in Sf9 cells as an amino terminal his6-tagged protein and was detected on membrane transfers using anti-Xpress antisera (Invitrogen). Bovine brain Gβγ was detected on membrane transfers with Gβ antisera. […]
Generation and screening of cDNA libraries. […] The cDNAs conferring such a response were considered positive and were further evaluated by epistasis experiments in different yeast strains, nucleotide sequencing and RNA blot analysis. […]

brain G-protein = assay: GTPγS binding assay, brain G-protein; type: biochemical, bovine; details: AGS proteins
Protocol: A and B, the carboxyl region of AGS3 (Pro^463-Ser^650) containing all four GPR repeats was generated as a His-tagged (A) or GST fusion (B) protein for protein interaction assays as described under Examples. All interactions were done in the presence of 10 μM GDP, and the input lanes represent one-tenth of the G-protein used in each interaction assay. A, Giα1 (75 nM) was incubated with 300 nM His-tagged AGS3-GPR in the absence and presence of increasing amounts of the GPR peptide, after which bound Giα was isolated on a nickel affinity matrix, and samples were processed for immunoblotting with Giα antisera. The blot in the upper panel of A was stripped and reprobed with AGS3 antisera to provide internal controls for protein loading. B, Giα2 (75 nM) was incubated with 300 nM AGS3-GPR or GST in the presence and absence of 100 μM GPR consensus peptide, GPR peptide Q15A, or GPR peptide R23F. […] C and D, GTPγ^35S binding to G-proteins (100 nM) was measured in the absence and presence of peptides as described in the Examples. Data are expressed as the percent of specific binding (˜5 pmol) observed in the absence of peptide and represent the means±S.E. derived from three experiments. […]
GTPγS Binding Assays—GTPγS binding assays were generally conducted as described (39). […] Radioactivity bound to the filters was determined by liquid scintillation counting. […]

| Molecule | activity in yeast strains expressing different Gα subunits [1] | effect on GTPγ35S binding to heterotrimeric brain G-protein (brain G-protein) |
| --- | --- | --- |
| AGS2: Activator of G-protein Signalling 2, protein identical to mouse Tctex1, isolated from NG108-15 cDNA library | active in each of the genetic backgrounds except Gpa1 | did not alter |
| AGS3: Activator of G-protein Signalling 3; bioactive 74 amino acid fragment isolated in yeast screen, tested as GST fusion (protein, left off: a dimerising Fc or GST) MLIKYQSSRIDDQRCPPPDVLPRGPTMPDEDFFSLIQRVQAKRMDEQRVDLAGSPDQEASGLPDPRQQCPPGAS | only active in the Giα2 and Giα3 genetic backgrounds | did not alter |
